{"source": "paper PMC6112376", "about": "“Comprehensive Analyses and Prioritization of Tox21 10K Chemicals Affecting Mitochondrial Function by in-Depth Mechanistic Studies” (Environmental Health Perspectives, 2018)", "key": {"[1]": {"system": "p53 (p53-bla HCT-116 cells)", "test": "p53 β-lactamase reporter gene assay", "format": "cell-based, human", "conditions": "Homo sapiens; 16 h incubation; mean±SD of three experiments"}, "[2]": {"system": "HepG2 cells", "test": "ROS-Glo hydrogen peroxide (ROS) assay", "format": "cell-based, human"}, "[3]": {"system": "HepG2 cells", "test": "cells", "conditions": "Homo sapiens"}, "[4]": {"system": "rat primary hepatocytes", "test": "MMP assay in rat primary hepatocytes", "conditions": "Rattus norvegicus, Hepatocyte, 1 h"}, "[5]": {"system": "HepG2 cells", "test": "Intracellular ATP content (cell viability) assay", "format": "cell-based, human", "conditions": "Homo sapiens, HepG2, 40 h"}, "[6]": {"system": "Caenorhabditis elegans (Bristol N2)", "test": "C. elegans larval development and growth assay"}, "[7]": {"system": "rat primary hepatocytes"}, "[8]": {"system": "isolated rat liver mitochondria", "test": "Oxygen consumption, Clark-type oxygen electrode", "format": "biochemical"}, "[9]": {"system": "HeLa cells expressing YFP-Parkin", "test": "Parkin translocation assay", "format": "cell-based, human"}, "[10]": {"system": "HepG2 cells", "conditions": "cited from earlier work"}, "[11]": {"system": "Nrf2/ARE (ARE-bla HepG2 cells)", "test": "ARE β-lactamase reporter gene assay", "format": "cell-based, human", "conditions": "16 h incubation; mean±SD of three experiments"}, "[12]": {"system": "hNSC", "test": "MMP assay in human neural stem cells (hNSC)", "format": "cell-based", "conditions": "Homo sapiens, Neural stem cell, 1 h, read-out: hNSC IC50 (MMP)"}, "[13]": {"system": "Caenorhabditis elegans strain PE255", "test": "In vivo C. elegans ATP status assay"}}, "note": "Where two headings read alike, the source gives them in different places."}
{"compound": "O=C(Nc1ccc([N+](=O)[O-])cc1Cl)c1cc(Cl)ccc1O", "note": "[Niclosamide, reference compound]", "values": [{"measurement": "EC50", "setting": "[1]", "value": "580 ± 490", "unit": "nM"}, {"measurement": "ROS (HepG2) EC50", "setting": "[2]", "value": "Inactive"}, {"measurement": "IC50", "setting": "[3]; HepG2, 1 h, read-out: HepG2 IC50 Galactose (MMP)", "value": 1470, "unit": "nM"}, {"measurement": "IC50", "setting": "[3]; HepG2, 1 h, read-out: HepG2 IC50 Glucose (MMP)", "value": 870, "unit": "nM"}, {"measurement": "IC50", "setting": "[3]; HepG2, read-out: IC50 in HepG2 cells (MMP, tier-one retest)", "value": 100, "unit": "nM"}, {"measurement": "Emax", "setting": "[3]; HepG2, read-out: MMP assays efficacy (%) HepG2", "value": 87, "unit": "%"}, {"measurement": "IC50", "setting": "[4]; read-out: IC50 in rat primary hepatocytes (MMP, tier-one retest)", "value": 440, "unit": "nM"}, {"measurement": "IC50", "setting": "[4]; read-out: Rat hepatocytes IC50 (MMP)", "value": 1360, "unit": "nM"}, {"measurement": "IC50", "setting": "[5]; read-out: ATP (HepG2, galactose) IC50", "value": 2260, "unit": "nM"}, {"measurement": "IC50", "setting": "[5]; read-out: ATP (HepG2, glucose) IC50", "value": 2010, "unit": "nM"}, {"measurement": "EXT: mean difference in nematode size relative to plate controls", "setting": "[6]; 0.5 µM", "value": 0.005018}, {"measurement": "EXT: mean difference in nematode size relative to plate controls", "setting": "[6]; 1 µM", "value": -0.03083}, {"measurement": "EXT: mean difference in nematode size relative to plate controls", "setting": "[6]; 5 µM", "value": -0.00657}, {"measurement": "EXT: mean difference in nematode size relative to plate controls", "setting": "[6]; 10 µM", "value": 0.2753}, {"measurement": "EXT: mean difference in nematode size relative to plate controls", "setting": "[6]; 25 µM", "value": 0.1226}, {"measurement": "EXT: mean difference in nematode size relative to plate controls", "setting": "[6]; 50 µM", "value": 0.2162}, {"measurement": "MMP assays efficacy (%) Rat Hepatocytes", "setting": "[7]", "value": "-112±30", "unit": "%"}, {"measurement": "Rat hepatocytes (efficacy) (MMP)", "setting": "[7]", "value": "1.36±0.16 ( −107±13.5 ) %"}, {"measurement": "Potential Mechanism", "setting": "[8]", "value": "Uncoupler at low concentrations (0.064-0.16 µM), and Uncoupler + inhibitor at high concentrations (0.8-100 µM)"}, {"measurement": "I-ADP, % of control (O2 consumption rate)", "setting": "[8]; 0.00128 µM", "value": "85 (30.5) % of control"}, {"measurement": "I-sub, % of control (O2 consumption rate)", "setting": "[8]; 0.00128 µM", "value": "109 (10.5) % of control"}, {"measurement": "II-ADP, % of control (O2 consumption rate)", "setting": "[8]; 0.00128 µM", "value": "92 (49.0) % of control"}, {"measurement": "II-sub, % of control (O2 consumption rate)", "setting": "[8]; 0.00128 µM", "value": "108 (17.7) % of control"}, {"measurement": "I-ADP, % of control (O2 consumption rate)", "setting": "[8]; 0.0064 µM", "value": "88 (31.4) % of control"}, {"measurement": "I-sub, % of control (O2 consumption rate)", "setting": "[8]; 0.0064 µM", "value": "125 (12.0) % of control"}, {"measurement": "II-ADP, % of control (O2 consumption rate)", "setting": "[8]; 0.0064 µM", "value": "87 (46.4) % of control"}, {"measurement": "II-sub, % of control (O2 consumption rate)", "setting": "[8]; 0.0064 µM", "value": "109 (17.9) % of control"}, {"measurement": "I-ADP, % of control (O2 consumption rate)", "setting": "[8]; 0.032 µM", "value": "103 (36.6) % of control"}, {"measurement": "I-sub, % of control (O2 consumption rate)", "setting": "[8]; 0.032 µM", "value": "192 (18.4) % of control"}, {"measurement": "II-ADP, % of control (O2 consumption rate)", "setting": "[8]; 0.032 µM", "value": "89 (47.7) % of control"}, {"measurement": "II-sub, % of control (O2 consumption rate)", "setting": "[8]; 0.032 µM", "value": "132 (21.7) % of control"}, {"measurement": "I-ADP, % of control (O2 consumption rate)", "setting": "[8]; 0.16 µM", "value": "126 (45.0) % of control"}, {"measurement": "I-sub, % of control (O2 consumption rate)", "setting": "[8]; 0.16 µM", "value": "419 (40.2) % of control"}, {"measurement": "II-ADP, % of control (O2 consumption rate)", "setting": "[8]; 0.16 µM", "value": "92 (49.0) % of control"}, {"measurement": "II-sub, % of control (O2 consumption rate)", "setting": "[8]; 0.16 µM", "value": "230 (37.8) % of control"}, {"measurement": "I-ADP, % of control (O2 consumption rate)", "setting": "[8]; 0.8 µM", "value": "85 (30.2) % of control"}, {"measurement": "I-sub, % of control (O2 consumption rate)", "setting": "[8]; 0.8 µM", "value": "308 (29.6) % of control"}, {"measurement": "II-ADP, % of control (O2 consumption rate)", "setting": "[8]; 0.8 µM", "value": "53 (28.1) % of control"}, {"measurement": "II-sub, % of control (O2 consumption rate)", "setting": "[8]; 0.8 µM", "value": "204 (33.5) % of control"}, {"measurement": "I-ADP, % of control (O2 consumption rate)", "setting": "[8]; 4 µM", "value": "70 (25.1) % of control"}, {"measurement": "I-sub, % of control (O2 consumption rate)", "setting": "[8]; 4 µM", "value": "276 (26.5) % of control"}, {"measurement": "II-ADP, % of control (O2 consumption rate)", "setting": "[8]; 4 µM", "value": "39 (21.1) % of control"}, {"measurement": "II-sub, % of control (O2 consumption rate)", "setting": "[8]; 4 µM", "value": "147 (24.1) % of control"}, {"measurement": "I-ADP, % of control (O2 consumption rate)", "setting": "[8]; 20 µM", "value": "79 (28.1) % of control"}, {"measurement": "I-sub, % of control (O2 consumption rate)", "setting": "[8]; 20 µM", "value": "308 (29.6) % of control"}, {"measurement": "II-ADP, % of control (O2 consumption rate)", "setting": "[8]; 20 µM", "value": "37 (19.6) % of control"}, {"measurement": "II-sub, % of control (O2 consumption rate)", "setting": "[8]; 20 µM", "value": "145 (23.8) % of control"}, {"measurement": "I-ADP, % of control (O2 consumption rate)", "setting": "[8]; 100 µM", "value": "93 (42.6) % of control"}, {"measurement": "I-sub, % of control (O2 consumption rate)", "setting": "[8]; 100 µM", "value": "296 (45.9) % of control"}, {"measurement": "II-ADP, % of control (O2 consumption rate)", "setting": "[8]; 100 µM", "value": "44 (31.3) % of control"}, {"measurement": "II-sub, % of control (O2 consumption rate)", "setting": "[8]; 100 µM", "value": "119 (37.3) % of control"}, {"measurement": "Parkin recruitment", "setting": "[9]", "value": "Active"}, {"measurement": "MMP assays efficacy (%) qHTS-HepG2", "setting": "[10]", "value": "-98±4", "unit": "%"}, {"measurement": "IC50", "setting": "[10]; read-out: MMP assays IC50 (µM), qHTS-HepG2", "value": "0.03 ± 0.01", "unit": "µM"}, {"measurement": "ARE (HepG2) EC50", "setting": "[11]", "value": "Inactive"}, {"measurement": "IC50", "setting": "[12]", "value": 420, "unit": "nM"}, {"measurement": "LUM: mean difference in luminescence (ATP content) relative to plate controls", "setting": "[13]; 0.5 µM", "value": 0.1961}, {"measurement": "LUM: mean difference in luminescence (ATP content) relative to plate controls", "setting": "[13]; 1 µM", "value": 0.1905}, {"measurement": "LUM: mean difference in luminescence (ATP content) relative to plate controls", "setting": "[13]; 5 µM", "value": 0.2783}, {"measurement": "LUM: mean difference in luminescence (ATP content) relative to plate controls", "setting": "[13]; 10 µM", "value": 0.1333}, {"measurement": "LUM: mean difference in luminescence (ATP content) relative to plate controls", "setting": "[13]; 25 µM", "value": 0.2438}, {"measurement": "LUM: mean difference in luminescence (ATP content) relative to plate controls", "setting": "[13]; 50 µM", "value": 0.3}, {"measurement": "LUM: mean difference in luminescence (ATP content) relative to plate controls", "setting": "[13]; 75 µM", "value": 0.12}, {"measurement": "LUM: mean difference in luminescence (ATP content) relative to plate controls", "setting": "[13]; 100 µM", "value": 0.1413}]}
